Laboratory results taken from patent US20230218624A1 (Urovant Sciences GmbH, priority 2017, published 2023).
“And” between values parts separate entries of the source, which are not always exact repeats. Identical values can stand only once.

Key:
[1] = Single rising oral dose Phase 1 pharmacokinetics; type: in vivo, human
Procedure: The steady state AUC geometric mean accumulation ratios were ˜2 in young male subjects and ˜2.8 in elderly subjects (male and female).
All subjects were healthy adults. […] Systemic exposures were greater than dose proportional up to 600 mg.

[2] = Effect of food on oral absorption; type: in vivo, human; conditions: for mean AUC0-24 with food compared to fasted state / mean Cmax with food compared to fasted state: 150 mg multiple doses, middle-aged and elderly females
QTc interval = test: Thorough QT study, single oral doses
[3] = Drug interaction study of vibegron 75 mg and rifampin; type: in vivo, human
healthy subjects = test: Maximum MA4 heart rate in multiple-dose Phase 1 study; type: in vivo, human; conditions: Day 14
Procedure: More intensive assessments of heart rate and blood pressure were performed in healthy volunteers in several Phase 1 studies. […] Doses ranged from 25 to 400 mg once daily for 7 to 28 days depending on the cohort. Least squares mean and 90% confidence intervals of maximum change from baseline in moving average of heart rate over 4 hours postdose (MA4 HR) are presented in Table 17.

[4] = Relative bioequivalence of aqueous and non-aqueous tablet; type: in vivo, human; conditions: 50 mg
Description: An open-label, single-dose, randomized, two-period, two-treatment, two-sequence, crossover Phase 1 study evaluated the relative bioequivalence of two types of tablets with slightly different composition: aqueous tablet (test) and non-aqueous tablet (reference).

[5] = system: patients with overactive bladder; test: Phase 2 safety data, adverse events (main study and 52-week extension)
Description: A placebo group was included in the main study, and a group that received tolterodine monotherapy was included in the main study and in the extension.

β3-AR = β3-AR (Homo sapiens, UniProt P13945)
[6] = 50 mg with high-fat meal, non-Japanese young males
[7] = 50 mg with standard Japanese breakfast, Japanese young males
[8] = 150 mg multiple doses with food, middle-aged females, Day 14
[9] = multiple dose 150 mg, day 14, non-Japanese middle-aged females, fasted
[10] = Vibegron + Rifampin 600 mg QD, single dose 75 mg, healthy adults
[11] = Vibegron alone, single dose 75 mg, healthy adults

Chain of β3-AR (P13945 whole entry): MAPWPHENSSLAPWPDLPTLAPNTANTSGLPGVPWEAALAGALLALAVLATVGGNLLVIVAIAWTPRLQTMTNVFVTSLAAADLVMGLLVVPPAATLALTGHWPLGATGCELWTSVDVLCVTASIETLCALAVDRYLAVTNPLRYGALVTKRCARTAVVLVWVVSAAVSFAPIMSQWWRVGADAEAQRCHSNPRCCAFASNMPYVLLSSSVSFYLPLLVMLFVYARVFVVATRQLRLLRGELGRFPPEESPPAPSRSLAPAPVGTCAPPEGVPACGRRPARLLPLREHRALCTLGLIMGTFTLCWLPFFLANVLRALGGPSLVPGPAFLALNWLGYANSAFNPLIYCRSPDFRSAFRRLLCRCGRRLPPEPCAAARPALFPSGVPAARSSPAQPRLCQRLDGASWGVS

With `O=C(Nc1ccc(C[C@@H]2CC[C@H]([C@H](O)c3ccccc3)N2)cc1)[C@@H]1CCc2nccc(=O)n21` [Vibegron, (6S)—N-[4-[[(2S,5R)-5-[(R)-hydroxy(phenyl)methyl]pyrrolidin-2-yl]methyl]phenyl]-4-oxo-7,8-dihydro-6H-pyrrolo[1,2-a]pyrimidine-6-carboxamide] the “exposure increase, young Japanese vs non-Japanese young males” value ([1]; single dose) was less than 2 fold, the “t1/2 (harmonic mean ± pseudo SD)” value ([1]; single dose 50 mg, Japanese healthy young males) was 64.4 ± 8.7 h and the “t1/2 (harmonic mean ± pseudo SD)” value ([1]; single dose 50 mg, elderly male and female) was 92.1 ± 15.9 h. For the same compound, the “t1/2 (harmonic mean ± pseudo SD)” value ([1]; single dose 200 mg, healthy young males) was 75.3 ± 9.1 h, the “t1/2 (harmonic mean ± pseudo SD)” value ([1]; single dose 450 mg, healthy young males) was 60.0 ± 9.4 h and the “delay in Tmax vs fasted” value [2, 6] was roughly 1 h. The “reduction in AUC0-inf vs fasted” value [2, 6] was 46%, the “reduction in Cmax vs fasted” value [2, 6] was 67% and the “reduction in AUC0-inf vs fasted” value [2, 7] was 37%. The “reduction in Cmax vs fasted” value [2, 7] was 52%, the “reduction in mean AUC0-24 hr vs fasted” value [2, 8] was 20% and the “reduction in mean Cmax vs fasted” value [2, 8] was 47%. The “mean AUC0-24 with food compared to fasted state” value ([2]; Day 1) was roughly 42%, the “mean Cmax with food compared to fasted state” value ([2]; Day 1) was 59% and the “mean AUC0-24 with food compared to fasted state” value ([2]; Day 14) was roughly 20%. For the same compound, the “mean Cmax with food compared to fasted state” value ([2]; Day 14) was 43%, the AUC0-24 [2, 9] was 3180 ± 925 ng·h/mL and the Cmax [2, 9] was 346 ± 139 ng/mL. For the same compound, the Ctrough [2, 9] was 62.7 ± 12.4 ng/mL, the “AUC, mean ± SD” value (QTc interval; single dose 200 mg) was 2430 ± 974 ng·h/mL and the “Maximum mean placebo corrected change from baseline RR interval” value (QTc interval; single dose 200 mg) was -84.36 ms. For the same compound, the “Maximum mean placebo corrected change from baseline diastolic BP” value (QTc interval; single dose 200 mg) was 2.42 mmHg, the “Maximum mean placebo corrected change from baseline systolic BP” value (QTc interval; single dose 200 mg) was 2.20 mmHg and the “QTcF LS mean difference from placebo” value (QTc interval; single dose 200 mg, 0.5 hour) was 2.90 ms. For the same compound, the “QTcF change from baseline, LS mean” value (QTc interval; single dose 200 mg, 0.5 hour) was 1.90 ms, the “QTcF change from baseline, LS mean” value (QTc interval; single dose 200 mg, 1 hour) was 4.87 ms and the “QTcF LS mean difference from placebo” value (QTc interval; single dose 200 mg, 1 hour (maximum)) was 4.98 (3.07, 6.88) msec and 4.98 msec. The “QTcF LS mean difference from placebo” value (QTc interval; single dose 200 mg, 2 hour) was 2.14 ms, the “QTcF change from baseline, LS mean” value (QTc interval; single dose 200 mg, 2 hour) was 2.06 ms and the “QTcF LS mean difference from placebo” value (QTc interval; single dose 200 mg, 3 hour) was 0.40 ms. For the same compound, the “QTcF change from baseline, LS mean” value (QTc interval; single dose 200 mg, 3 hour) was 1.14 ms, the “QTcF LS mean difference from placebo” value (QTc interval; single dose 200 mg, 4 hour) was -0.83 ms and the “QTcF change from baseline, LS mean” value (QTc interval; single dose 200 mg, 4 hour) was -0.40 ms. The “QTcF LS mean difference from placebo” value (QTc interval; single dose 200 mg, 6 hour) was -1.26 ms, the “QTcF change from baseline, LS mean” value (QTc interval; single dose 200 mg, 6 hour) was -6.89 ms and the “QTcF LS mean difference from placebo” value (QTc interval; single dose 200 mg, 8 hour) was -1.24 ms. The “QTcF change from baseline, LS mean” value (QTc interval; single dose 200 mg, 8 hour) was -9.59 ms, the “QTcF LS mean difference from placebo” value (QTc interval; single dose 200 mg, 10 hour) was -2.67 ms and the “QTcF change from baseline, LS mean” value (QTc interval; single dose 200 mg, 10 hour) was -8.82 ms. For the same compound, the “QTcF LS mean difference from placebo” value (QTc interval; single dose 200 mg, 12 hour) was -3.72 ms, the “QTcF change from baseline, LS mean” value (QTc interval; single dose 200 mg, 12 hour) was -6.82 ms and the “QTcF LS mean difference from placebo” value (QTc interval; single dose 200 mg, 23.5 hour) was 0.38 ms. For the same compound, the “QTcF change from baseline, LS mean” value (QTc interval; single dose 200 mg, 23.5 hour) was -2.15 ms, the “Maximum mean placebo corrected change from baseline RR interval” value (QTc interval; single dose 400 mg) was -162.45 ms and the “Maximum mean placebo corrected change from baseline diastolic BP” value (QTc interval; single dose 400 mg) was 3.99 mmHg. The “Maximum mean placebo corrected change from baseline systolic BP” value (QTc interval; single dose 400 mg) was 3.97 mmHg, the “QTcF LS mean difference from placebo” value (QTc interval; single dose 400 mg, 0.5 hour) was 3.37 ms and the “QTcF change from baseline, LS mean” value (QTc interval; single dose 400 mg, 0.5 hour) was 2.37 ms. For the same compound, the “QTcF change from baseline, LS mean” value (QTc interval; single dose 400 mg, 1 hour) was 4.49 ms, the “QTcF LS mean difference from placebo” value (QTc interval; single dose 400 mg, 1 hour (maximum)) was 4.60 (2.71, 6.48) msec and 4.60 msec and the “QTcF LS mean difference from placebo” value (QTc interval; single dose 400 mg, 2 hour) was 0.81 ms. The “QTcF change from baseline, LS mean” value (QTc interval; single dose 400 mg, 2 hour) was 0.73 ms, the “QTcF LS mean difference from placebo” value (QTc interval; single dose 400 mg, 3 hour) was -1.04 ms and the “QTcF change from baseline, LS mean” value (QTc interval; single dose 400 mg, 3 hour) was -0.30 ms. For the same compound, the “QTcF LS mean difference from placebo” value (QTc interval; single dose 400 mg, 4 hour) was -2.96 ms, the “QTcF change from baseline, LS mean” value (QTc interval; single dose 400 mg, 4 hour) was -2.53 ms and the “QTcF LS mean difference from placebo” value (QTc interval; single dose 400 mg, 6 hour) was -2.70 ms. For the same compound, the “QTcF change from baseline, LS mean” value (QTc interval; single dose 400 mg, 6 hour) was -8.33 ms, the “QTcF LS mean difference from placebo” value (QTc interval; single dose 400 mg, 8 hour) was -3.24 ms and the “QTcF change from baseline, LS mean” value (QTc interval; single dose 400 mg, 8 hour) was -11.60 ms. The “QTcF LS mean difference from placebo” value (QTc interval; single dose 400 mg, 10 hour) was -4.14 ms, the “QTcF change from baseline, LS mean” value (QTc interval; single dose 400 mg, 10 hour) was -10.29 ms and the “QTcF LS mean difference from placebo” value (QTc interval; single dose 400 mg, 12 hour) was -4.00 ms. The “QTcF change from baseline, LS mean” value (QTc interval; single dose 400 mg, 12 hour) was -7.10 ms, the “QTcF LS mean difference from placebo” value (QTc interval; single dose 400 mg, 23.5 hour) was -0.34 ms and the “QTcF change from baseline, LS mean” value (QTc interval; single dose 400 mg, 23.5 hour) was -2.87 ms. For the same compound, the “effect on QTc or blood pressure” value (QTc interval; thorough QT study) was “no clinically meaningful effect on QTc or blood pressure”, the “CL/F, geometric mean (% CV)” value [3, 10] was 57.3 (30.1) L/hr and the “V/F, geometric mean (% CV)” value [3, 10] was 6140 (47.0) L. The “t1/2, geometric mean (% CV)” value [3, 10] was 74.2 (25.2) h, the “CL/F, geometric mean (% CV)” value [3, 11] was 57.2 (39.7) L/hr and the “V/F, geometric mean (% CV)” value [3, 11] was 6930 (48.6) L. The tolerability ([3]; vibegron 75 mg and rifampin, healthy male and female subjects) was “well tolerated”, the “subjects with an AE related to study drug” value ([3]; vibegron 75 mg single doses and rifampin 600 mg QD, 3 of 20 subjects) was 15% and the “Maximum MA4 HR difference from placebo (90% CI)” value (healthy subjects; 25 mg once daily) was −1.60 (−7.09, 3.88) bpm. For the same compound, the “Maximum MA4 HR, LS mean (90% CI)” value (healthy subjects; 25 mg once daily) was 1.47 (−3.24, 6.17) bpm, the “Maximum MA4 HR difference from placebo (90% CI)” value (healthy subjects; 50 mg once daily) was −1.57 (−6.70, 3.56) bpm and the “Maximum MA4 HR, LS mean (90% CI)” value (healthy subjects; 50 mg once daily) was 1.50 (−2.79, 5.79) bpm. For the same compound, the “Maximum MA4 HR, LS mean (90% CI)” value (healthy subjects; 100 mg once daily) was 3.28 (−1.02, 7.57) bpm, the “Maximum MA4 HR difference from placebo (90% CI)” value (healthy subjects; 150 mg once daily) was 0.10 (−5.04, 5.23) bpm and the “Maximum MA4 HR, LS mean (90% CI)” value (healthy subjects; 150 mg once daily) was 3.17 (−1.13, 7.46) bpm. For the same compound, the “Maximum MA4 HR difference from placebo (90% CI)” value (healthy subjects; 200 mg once daily) was 2.60 (−2.89, 8.08) bpm, the “Maximum MA4 HR, LS mean (90% CI)” value (healthy subjects; 200 mg once daily) was 5.67 (0.96, 10.37) bpm and the “Maximum MA4 HR difference from placebo (90% CI)” value (healthy subjects; 300 mg once daily) was 5.98 (0.85, 11.12) bpm. For the same compound, the “Maximum MA4 HR, LS mean (90% CI)” value (healthy subjects; 300 mg once daily) was 9.06 (4.76, 13.35) bpm, the “Maximum MA4 HR difference from placebo (90% CI)” value (healthy subjects; 400 mg once daily) was 7.26 (2.13, 12.39) bpm and the “Maximum MA4 HR, LS mean (90% CI)” value (healthy subjects; 400 mg once daily) was 10.33 (6.04, 14.63) bpm. The “AUC0-inf GMR test to reference tablet” value [4] was 100.2%, the “Cmax GMR test to reference tablet” value [4] was 107.7% and the “Accidental overdose, % subjects” value ([5]; 3 mg, first 12 weeks) was “(2.1) %”. The “Accidental overdose, n subjects” value ([5]; 3 mg, first 12 weeks) was 3, the “Accidental overdose, % subjects” value ([5]; 15 mg, first 12 weeks) was “(4.5) %” and the “Accidental overdose, n subjects” value ([5]; 15 mg, first 12 weeks) was 6. For the same compound, the “Accidental overdose, % subjects” value ([5]; 50 mg, first 12 weeks) was “(2.7) %”, the “Accidental overdose, n subjects” value ([5]; 50 mg, first 12 weeks) was 4 and the “Accidental overdose, % subjects” value ([5]; 100 mg, first 12 weeks) was “(4.2) %”. For the same compound, the “Accidental overdose, n subjects” value ([5]; 100 mg, first 12 weeks) was 11, the “≥1 AE, n subjects” value ([5]; 100 mg, first 12 weeks) was 107 and the frequency of injuries ([5]; human, in vivo) was 0.9%. The “increased exposure (potential risk)” value ([5]; human, in vivo) was roughly 2 fold and the “β3-AR IC50” value (β3-AR) was 0.086 µg/mL.
